Test system: panel of breast cancer cell lines
Assay: Compound A with targeted agents and chemotherapies, 72-hour in vitro proliferation assays
Format: cell-based
Settings: 72-hour proliferation
[1] = AU565 cell line, compound A × partner
[2] = BT-20 cell line, compound A × partner
[3] = BT-474 cell line, compound A × partner
[4] = BT-549 cell line, compound A × partner
[5] = CAL-51 cell line, compound A × partner
[6] = CAL-85-1 cell line, compound A × partner
[7] = CAL-120 cell line, compound A × partner
[8] = CAL-148 cell line, compound A × partner
[9] = CAMA-1 cell line, compound A × partner
[10] = DU-4475 cell line, compound A × partner
[11] = EVSA-T cell line, compound A × partner
[12] = MCF7 cells, Compound A × partner agent
[13] = MDA-MB-175-VII cells, Compound A × partner agent
[14] = MDA-MB-231 cells, Compound A × partner agent
[15] = MDA-MB-361 cells, Compound A × partner agent
[16] = MDA-MB-436 cells, Compound A × partner agent
[17] = MDA-MB-453 cells, Compound A × partner agent
[18] = MDA-MB-468 cells, Compound A × partner agent
[19] = SK-BR-3 cells, Compound A × partner agent
[20] = SUM159PT cells, combination of compound A with the named agent
[21] = T47D cells, combination of compound A with the named agent
[22] = ZR-75-1 cells, combination of compound A with the named agent
[23] = ZR-75-30 cells, combination of compound A with the named agent

SMILES: CO[C@H]1C[C@@H]2CC[C@@H](C)[C@@](O)(O2)C(=O)C(=O)N2CCCC[C@H]2C(=O)O[C@H]([C@H](C)C[C@@H]2CC[C@@H](OCCO)[C@H](OC)C2)CC(=O)[C@H](C)/C=C(\C)[C@@H](O)[C@@H](OC)C(=O)[C@H](C)C[C@H](C)/C=C/C=C/C=C/1C [Everolimus]
- Bliss Volume [1]: 5.68
- HSA volume [1]: 2.64
- Loewe Volume [1]: 3.01
- Synergy Score [1]: 3.02
- Bliss Volume [2]: 8.37
- HSA volume [2]: 8.23
- Loewe Volume [2]: 7.02
- Synergy Score [2]: 11.08
- Bliss Volume [3]: 3.26
- HSA volume [3]: −1.26
- Loewe Volume [3]: −2.71
- Synergy Score [3]: 2.41
- Bliss Volume [4]: 5.93
- HSA volume [4]: 8.22
- Loewe Volume [4]: 7.87
- Synergy Score [4]: 7.35
- Bliss Volume [5]: −2.55
- HSA volume [5]: 0.45
- Loewe Volume [5]: 0.41
- Synergy Score [5]: 1.34
- Bliss Volume [6]: 10.37
- HSA volume [6]: 14.41
- Loewe Volume [6]: 13.60
- Synergy Score [6]: 16.26
- Bliss Volume [7]: −2.79
- HSA volume [7]: −1.61
- Loewe Volume [7]: −1.62
- Synergy Score [7]: 0.53
- Bliss Volume [8]: 5.67
- HSA volume [8]: 9.58
- Loewe Volume [8]: 8.56
- Synergy Score [8]: 18.16
- Bliss Volume [9]: 10.06
- HSA volume [9]: 2.71
- Loewe Volume [9]: 3.20
- Synergy Score [9]: 7.90
- Bliss Volume [10]: 4.29
- HSA volume [10]: 1.94
- Loewe Volume [10]: 0.97
- Synergy Score [10]: 2.43
- Bliss Volume [11]: 10.56
- HSA volume [11]: −0.76
- Loewe Volume [11]: −1.22
- Synergy Score [11]: 1.85
- Bliss Volume (HCC38, compound A × partner): −6.70
- HSA volume (HCC38, compound A × partner): −1.96
- Loewe Volume (HCC38, compound A × partner): −2.56
- Synergy Score (HCC38, compound A × partner): 2.18
- Bliss Volume (HCC70, compound A × partner): 9.56
- HSA volume (HCC70, compound A × partner): 8.83
- Loewe Volume (HCC70, compound A × partner): 6.84
- Synergy Score (HCC70, compound A × partner): 11.30
- Bliss Volume (HCC1143, compound A × partner): 8.68
- HSA volume (HCC1143, compound A × partner): 8.45
- Loewe Volume (HCC1143, compound A × partner): 10.21
- Synergy Score (HCC1143, compound A × partner): 9.36
- Bliss Volume (HCC1569, compound A × partner): 2.35
- HSA volume (HCC1569, compound A × partner): 5.10
- Loewe Volume (HCC1569, compound A × partner): 4.65
- Synergy Score (HCC1569, compound A × partner): 3.45
- Bliss Volume (HCC1806, compound A × partner): 5.19
- HSA volume (HCC1806, compound A × partner): 2.88
- Loewe Volume (HCC1806, compound A × partner): 5.59
- Synergy Score (HCC1806, compound A × partner): 2.52
- Bliss Volume (HCC1937, compound A × partner): 1.96
- HSA volume (HCC1937, compound A × partner): 3.68
- Loewe Volume (HCC1937, compound A × partner): 4.63
- Synergy Score (HCC1937, compound A × partner): 4.89
- Bliss Volume (HCC1954, compound A × partner): 20.04
- HSA volume (HCC1954, compound A × partner): 23.41
- Loewe Volume (HCC1954, compound A × partner): 21.71
- Synergy Score (HCC1954, compound A × partner): 36.09
- Bliss Volume (HCC2218, compound A × partner): −0.77
- HSA volume (HCC2218, compound A × partner): −0.63
- Loewe Volume (HCC2218, compound A × partner): −2.03
- Synergy Score (HCC2218, compound A × partner): 3.37
- Bliss Volume (HDQ-P1, compound A × partner): 6.97
- HSA volume (HDQ-P1, compound A × partner): −1.39
- Loewe Volume (HDQ-P1, compound A × partner): 6.48
- Synergy Score (HDQ-P1, compound A × partner): 2.04
- Bliss Volume (HMC-1-8, compound A × partner): 9.19
- HSA volume (HMC-1-8, compound A × partner): 5.60
- Loewe Volume (HMC-1-8, compound A × partner): 5.97
- Synergy Score (HMC-1-8, compound A × partner): 9.41
- Bliss Volume (JIMT-1, compound A × partner): 5.29
- HSA volume (JIMT-1, compound A × partner): 2.41
- Loewe Volume (JIMT-1, compound A × partner): 1.96
- Synergy Score (JIMT-1, compound A × partner): 1.56
- Best CI (KPL-1, compound A × partner): 0.45
- Best CI Level (KPL-1, compound A × partner): 95
- Bliss Volume (KPL-1, compound A × partner): 2.85
- HSA volume (KPL-1, compound A × partner): 5.14
- Loewe Volume (KPL-1, compound A × partner): 4.93
- Synergy Score (KPL-1, compound A × partner): 6.00
- Bliss Volume [12]: 6.88
- HSA volume [12]: 7.73
- Loewe Volume [12]: 6.93
- Synergy Score [12]: 9.72
- Bliss Volume [13]: 9.10
- HSA volume [13]: 4.72
- Loewe Volume [13]: 4.62
- Synergy Score [13]: 10.26
- Bliss Volume [14]: 0.30
- HSA volume [14]: 2.64
- Loewe Volume [14]: 3.33
- Synergy Score [14]: 2.06
- Bliss Volume [15]: 5.72
- HSA volume [15]: 4.93
- Loewe Volume [15]: 3.91
- Synergy Score [15]: 8.70
- Bliss Volume [16]: 2.45
- HSA volume [16]: 4.01
- Loewe Volume [16]: 3.66
- Synergy Score [16]: 2.25
- Bliss Volume [17]: 3.87
- HSA volume [17]: 0.04
- Loewe Volume [17]: −0.98
- Synergy Score [17]: 5.75
- Bliss Volume [18]: 11.63
- HSA volume [18]: 9.14
- Loewe Volume [18]: 7.97
- Synergy Score [18]: 15.60
- Bliss Volume [19]: 7.76
- HSA volume [19]: 3.46
- Loewe Volume [19]: 2.55
- Synergy Score [19]: 4.58
- Bliss Volume [20]: 0.61
- HSA volume [20]: 1.27
- Loewe Volume [20]: 0.66
- Synergy Score [20]: 1.12
- Bliss Volume [21]: −0.21
- HSA volume [21]: 2.87
- Loewe Volume [21]: 2.69
- Synergy Score [21]: 3.70
- Bliss Volume [22]: 3.52
- HSA volume [22]: 5.12
- Loewe Volume [22]: 4.67
- Synergy Score [22]: 5.68
- Bliss Volume [23]: 3.82
- HSA volume [23]: 4.76
- Loewe Volume [23]: 4.25
- Synergy Score [23]: 7.22
